According to US8518958B2, “Pyrido [2,3-D] pyrimidines and their use as kinase inhibitors” (Forma Therapeutics, Inc., priority 2006, dated 2013):

Experiments:
[1] = biological target: C-Raf Raf-1 (truncated), active (Homo sapiens, UniProt P04049, Y340D/Y341D); assay: C-Raf kinase inhibition (MAPH assay / IMAP assay); settings: read-out: Biochemical IC50 C-Raf
Outline: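 Truncated active human C-Raf (Y340D/Y341D), room temperature, top inhibitor concentration 10 μM in a dilution series for IC50. MAPH: 57.8 μM myelin basic protein with [γ-33P]ATP, kinase at 10% ATP turnover, 1 h, filter-bound radioactivity. IMAP: 400 nM fluorescent peptide, 20 mM Hepes pH 7.5 with 10 mM MnCl2, kinase at 50% turnover, fluorescence polarization.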

B-Raf delta1-415 = B-Raf delta1-415 (Homo sapiens, UniProt P15056); assay: B-Raf kinase inhibition (MAPH filter plate, 33P-ATP, MEK1 substrate); settings: read-out: Biochemical IC50 B-Raf
Outline: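 Radiometric filter-binding assay with B-Raf delta1-415 at a level giving 50% turnover, MEK1 substrate and 33P-ATP (12.5 μCi/ml) in 20 mM Mops pH 7.0 with Mg/Mn, 1 h at room temperature. Inhibitor dilution series from 10 μM; EDTA-stopped reactions captured on phosphocellulose filters, counted by scintillation for IC50.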

HT-29 tumor cells = assay: Anti-proliferative activity, SRB assay; format: cell-based, human; settings: Homo sapiens, HT-29, 72 h, 72 hours exposure, read-out: CELLULAR IC50 HT-29
Outline: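 Cells at 3,000-15,000/well, plated 24 h before compound, exposed to a concentration range for 72 hours. Proliferation measured by SRB staining after cold TCA fixation, absorbance at OD570; IC50 estimated from % inhibition versus DMSO-treated cells.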

Sequence of B-Raf delta1-415 (P15056 416-766): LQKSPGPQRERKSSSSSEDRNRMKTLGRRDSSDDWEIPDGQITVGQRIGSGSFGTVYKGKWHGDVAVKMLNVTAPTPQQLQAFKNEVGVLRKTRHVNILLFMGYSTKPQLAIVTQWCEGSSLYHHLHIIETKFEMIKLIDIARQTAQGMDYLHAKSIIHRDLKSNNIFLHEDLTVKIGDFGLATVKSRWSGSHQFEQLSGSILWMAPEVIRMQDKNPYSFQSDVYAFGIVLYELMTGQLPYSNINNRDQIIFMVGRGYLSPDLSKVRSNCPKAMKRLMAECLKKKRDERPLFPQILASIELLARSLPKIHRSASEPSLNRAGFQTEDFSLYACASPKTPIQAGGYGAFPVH
Sequence of C-Raf Raf-1 (truncated), active (P04049 306-648 Y340D/Y341D): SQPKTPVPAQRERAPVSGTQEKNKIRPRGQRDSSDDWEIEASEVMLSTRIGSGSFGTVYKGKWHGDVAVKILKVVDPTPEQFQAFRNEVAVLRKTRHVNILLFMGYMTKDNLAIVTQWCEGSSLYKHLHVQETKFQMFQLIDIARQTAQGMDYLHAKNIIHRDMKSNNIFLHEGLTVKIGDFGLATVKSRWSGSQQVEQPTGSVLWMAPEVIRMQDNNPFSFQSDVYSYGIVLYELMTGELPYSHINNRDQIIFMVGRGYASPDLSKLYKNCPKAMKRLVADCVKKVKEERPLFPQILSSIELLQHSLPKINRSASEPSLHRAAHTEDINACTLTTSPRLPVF

IC50 [1] [nM]	IC50 (B-Raf delta1-415) [nM]	IC50 (HT-29 tumor cells) [nM]	SMILES
< 100	< 500	< 10000	COn1c(=O)c(-c2c(Cl)cccc2Cl)cc2cnc(Nc3cc(C(=O)O)n(C)c3)nc21 [Compound 54, 2-(5-Carboxy-1-methyl-pyrrol-3-yl)-amino-6-(2,6-dichlorophenyl)-8-methoxy-pyrido[2,3-d]pyrimidin-7-one]
< 100	< 500	< 1000	COn1c(=O)c(-c2c(Cl)cccc2Cl)cc2cnc(Nc3cccc(S(N)(=O)=O)c3)nc21 [Compound 4, 6-(2,6-Dichlorophenyl)-8-methoxy-2-(3-sulfamoylphenylamino)-pyrido[2,3-d]pyrimidin-7-one]
< 100	< 1000	< 1000	COc1cccc(Nc2ncc3cc(-c4ccccc4Cl)c(=O)n(OC)c3n2)c1 [Compound 7, 6-(2-Chlorophenyl)-8-methoxy-2-(3-methoxyphenylamino)-pyrido[2,3-d]pyrimidin-7-one]
< 1000	< 1000	< 1000	COn1c(=O)c(-c2c(F)cccc2C(F)(F)F)cc2cnc(Nc3ccc(N4CCN(C)CC4)cc3)nc21 [Compound 53, 6-(2-Fluoro-6-trifluoromethyl-phenyl)-8-methoxy-2-(4-(4-methylpiperazino)-phenylamino)-pyrido[2,3-d]pyrimidin-7-one]
< 100	< 100	< 1000	COc1cccc(Nc2ncc3cc(-c4c(F)cccc4Cl)c(=O)n(OC[C@@H](O)CO)c3n2)c1 [Compound 75, 6-(2-Chloro-6-fluorophenyl)-8-(2-(S)-2,3-dihydroxypropyl)oxy-2-(3-methoxyphenyl)amino-pyrido[2,3-d]pyrimidin-7-one]
< 100	< 100	< 1000	COn1c(=O)c(-c2c(Cl)cccc2Cl)cc2cnc(Nc3ccc(OCCN(C)C)cc3)nc21 [Compound 24, 6-(2,6-Dichlorophenyl)-8-methoxy-2-(4-(2-dimethylaminoethoxy)-phenylamino)-pyrido[2,3-d]pyrimidin-7-one]
< 100	< 500	> 10000	COCCNc1ncc2cc(-c3c(Cl)cccc3Cl)c(=O)n(OC)c2n1 [Compound 48, 6-(2,6-Dichlorophenyl)-8-methoxy-2-methoxyethylamino-pyrido[2,3-d]pyrimidin-7-one]
< 100	> 1000	< 10000	COn1c(=O)c(-c2cc(NC(=O)c3cccc(Cl)c3)ccc2Cl)cc2cnc(Nc3ccccc3)nc21 [Compound 36]
